For five compounds, Activity results are on record in ChEMBL document CHEMBL1806400, “New isoprenylated flavonoids and adipogenesis-promoting constituents from Morus notabilis” (2011).

The source made the active and inactive calls. No cut-off for these calls is given here.

Assay [1] deals with 3T3-L1. Briefly: Induction of adipogenesis in mouse 3T3L1 cells assessed as increase in triglyceride content at 1 uM after 8 days by Oil red O staining relative to control. The assay is classed as functional.
Assay [2] deals with 3T3-L1. The assay can be described thus: Induction of adipogenesis in mouse 3T3L1 cells assessed as increase in triglyceride content at 7.5 uM after 8 days by Oil red O staining relative to control. The class given is functional.
Assay [3] relates to 3T3-L1. Briefly: Induction of adipogenesis in mouse 3T3L1 cells assessed as increase in triglyceride content at 15 uM after 8 days by Oil red O staining relative to control. The assay is classed as functional.
The test system of assay [4] is 3T3-L1. The assay can be described thus: Upregulation of aP2 gene expression in mouse 3T3L1 cells by RT-PCR analysis. The assay is classed as functional, cell-based.
In assay [5] the test system is 3T3-L1. The assay can be described thus: Upregulation of aP2 protein expression in mouse 3T3L1 cells by Western blot analysis. The assay is classed as functional, cell-based. (A western blot detects proteins with antibodies after separation by electrophoresis.)
Assay [6] deals with 3T3-L1. The assay can be described thus: Upregulation of GLUT4 gene expression in mouse 3T3L1 cells by RT-PCR analysis. The class given is functional, cell-based.
In assay [7] the test system is 3T3-L1. Briefly: Upregulation of GLUT4 protein expression in mouse 3T3L1 cells by Western blot analysis. The class given is functional, cell-based.
Assay [8] deals with 3T3-L1. Briefly: Induction of adipogenesis in mouse 3T3L1 cells assessed as increase in triglyceride content at 5 uM after 8 days by Oil red O staining relative to control. The assay is classed as functional.
For assay [9], the system named is 3T3-L1. Briefly: Induction of adipogenesis in mouse 3T3L1 cells assessed as increase in triglyceride content at 10 uM after 8 days by Oil red O staining relative to control. The class given is functional.
The subject of assay [10] is 3T3-L1. The assay can be described thus: Induction of adipogenesis in mouse 3T3L1 cells assessed as increase in triglyceride content after 8 days by Oil red O staining relative to control. The assay is classed as functional, cell-based.

Consider `CN(CCOc1ccc(CC2SC(=O)NC2=O)cc1)c1ccccn1` (stereo not given) [ROSIGLITAZONE], for which, in the assay on 3T3-L1 [1], the Activity was 984.24%.

On to `CC(C)=CCC/C(C)=C/Cc1c(-c2oc3c(CC=C(C)C)c(O)cc(O)c3c(=O)c2O)ccc(O)c1O` [NOTABILISIN C], for which the figures for the Activity with 3T3-L1 [2] and in the assay on 3T3-L1 [3] were 312.24% and 948.51%, respectively. For the same compound, the result with 3T3-L1 [4], in the assay with 3T3-L1 [5], in the assay on 3T3-L1 [6] and with 3T3-L1 [7] was Active.

On to `COc1c(-c2ccc(O)c(O)c2C/C=C(\C)CCC=C(C)C)oc2cc(O)cc(O)c2c1=O` [NOTABILISIN A], for which the values for the Activity in the assay with 3T3-L1 [8] and in the assay with 3T3-L1 [9] were 305.32% and 513.55%, respectively. For the same compound, the outcome in the assay on 3T3-L1 [4], in the assay on 3T3-L1 [5], with 3T3-L1 [6] and in the assay with 3T3-L1 [7] was Active.

`CC(C)=CCc1c(O)ccc(C(=O)[C@H]2[C@@H](c3c(O)cc(-c4cc5ccc(O)cc5o4)cc3O)C=C(C)C[C@@H]2c2ccc(O)cc2O)c1O` [CHALCOMORACIN]: the figures for the Activity in the assay on 3T3-L1 [2] and with 3T3-L1 [3] were 109.99% and 125.36%, respectively. In addition, the outcome in the assay on 3T3-L1 [4], in the assay with 3T3-L1 [6] and in the assay on 3T3-L1 [7] was inactive. Also, the result in the assay with 3T3-L1 [5] was Active.

As for `CC(C)=CCc1c(O)ccc(C(=O)[C@H]2[C@@H](c3c(O)ccc(C(=O)/C=C/c4ccc(O)cc4O)c3O)C=C(C)C[C@@H]2c2ccc(O)cc2O)c1O`, the result in the assay with 3T3-L1 [10] was inactive.
